The values below come from ChEMBL document CHEMBL1151005 (Bioorg Med Chem Lett, 1995).

One may read the IC50 as the concentration that gives 50% inhibition. A higher IC50 goes with lower potency.

Molecules are shown by their SMILES.

In this assay the target is Human immunodeficiency virus type 1 reverse transcriptase (Human immunodeficiency virus 1, UniProt Q72547). The assay can be described thus: Inhibitory activity against HIV-1 Reverse transcriptase (RT) was determined.
In the case of `CCN1c2ccncc2N(C)C(=O)c2cccnc21`, half-maximal inhibition (IC50) was put at 1600 nM.

The compound `CCN1c2cnccc2N(C)C(=O)c2cccnc21` returned an IC50 of 350 nM. This IC50 lies about 4.6-fold lower than the previous one.

`CCN1c2cnccc2C(=O)N(C)c2cccnc21` displayed an IC50 of 6400 nM. This IC50 is about 18-fold higher than that of the compound before.
